Calls of active or inactive are those of the source. The rule behind the calls is not given here.
Assays:
[1] = molecular target: Protein arginine N-methyltransferase 1 (Homo sapiens) (UniProt Q99873); test: Inhibition of PRMT1 (unknown origin) using Biotin-tagged H4K20me1 and [3H-SAM] as substrate at 1 to 10 uM incubated for 2 hrs by scintillation proximity assay; conditions: dose 1-10 µM
[2] = molecular target: Protein arginine N-methyltransferase 3 (Homo sapiens) (UniProt O60678); test: Inhibition of PRMT3 (unknown origin) using Biotin-tagged H4K20me1 and [3H-SAM] as substrate at 1 to 10 uM incubated for 2 hrs by scintillation proximity assay; conditions: dose 1-10 µM
[3] = molecular target: Histone-lysine N-methyltransferase SETD7 (Homo sapiens) (UniProt Q8WTS6); test: Inhibition of SETD7 (unknown origin) using Biotin-tagged H4K20me1 and [3H-SAM] as substrate at 1 to 10 uM incubated for 2 hrs by scintillation proximity assay; conditions: dose 1-10 µM
[4] = molecular target: Histone-lysine N-methyltransferase EHMT1 (Homo sapiens) (UniProt Q9H9B1); test: Inhibition of EHMT1 (unknown origin) using Biotin-tagged H4K20me1 and [3H-SAM] as substrate at 1 to 10 uM incubated for 2 hrs by scintillation proximity assay; conditions: dose 1-10 µM
[5] = molecular target: Histone-lysine N-methyltransferase SMYD3 (Homo sapiens) (UniProt Q9H7B4); test: Inhibition of SMYD3 (unknown origin) using Biotin-tagged H4K20me1 and [3H-SAM] as substrate at 1 to 10 uM incubated for 2 hrs by scintillation proximity assay; conditions: dose 1-10 µM
[6] = molecular target: Histone-lysine N-methyltransferase, H3 lysine-36 specific (Homo sapiens) (UniProt Q96L73); test: Inhibition of NSD1 (unknown origin) at 1 to 10 uM incubated for 1 hrs by scintillation proximity assay; conditions: dose 1-10 µM
U2OS [7] = test: Inhibition of H4K20me2 in human U2OS cells at 3 uM incubated for 48 hrs by Western blotting analysis; assay type: functional, cell-based
U2OS [8] = test: Induction of cell cycle arrest in human U2OS cells assessed as increase in H4K20me1 in S phase at 0.6 to 6 uM by plot analysis; assay type: functional, cell-based; conditions: dose 0.6-6 µM
U2OS [9] = test: Cytotoxicity against human U2OS cells assessed as cell viability at 1.5 to 100 uM incubated after 72 hrs; assay type: functional, cell-based; conditions: dose 1.5-100 µM
U2OS [10] = test: Antiproliferative activity against human U2OS cells assessed as cell population doubling at 1 uM incubated for 80 days; assay type: functional, cell-based; conditions: time 80.0 day
PC-3 = test: Antiproliferative activity against human PC-3 cells assessed as cell population doubling at 1 uM incubated for 80 days; assay type: functional, cell-based; conditions: time 80.0 day
HeLa = test: Antiproliferative activity against human HeLa cells assessed as inhibition in H4K20me2 expression level 21 doublings by Western blot analysis; assay type: functional, cell-based
U2OS [11] = test: Induction of DNA repair in human U2OS cells assessed as inhibition in 53BP1 foci formation at 1 uM measured after 24 hrs in the presence of 10 Gy of ionizing radiation by immunofluorescence analysis; assay type: functional, cell-based
U2OS [12] = test: Induction of DNA repair in human U2OS cells expressing I-SceI reporter assessed as decrease in H4K20me2 level by Western blot analysis; assay type: functional, cell-based
U2OS [13] = test: Induction of DNA repair in human U2OS cells expressing I-SceI reporter assessed as decrease in H4K20me3 level by Western blot analysis; assay type: functional, cell-based
U2OS [14] = test: Induction of DNA repair in human U2OS cells expressing I-SceI reporter assessed as change in HDR-mediated repair at 1 uM by flow cytometry analysis; assay type: functional, cell-based
[15] = molecular target: MAP kinase-interacting serine/threonine-protein kinase 2 (Homo sapiens) (UniProt Q9HBH9); test: Inhibition of human MNK2 at 10 uM relative to control
[16] = molecular target: Tyrosine-protein kinase ABL1 (Homo sapiens) (UniProt P00519); test: Inhibition of human Abl at 10 uM relative to control
Sequence of Tyrosine-protein kinase ABL1 (Homo sapiens) (P00519 whole entry): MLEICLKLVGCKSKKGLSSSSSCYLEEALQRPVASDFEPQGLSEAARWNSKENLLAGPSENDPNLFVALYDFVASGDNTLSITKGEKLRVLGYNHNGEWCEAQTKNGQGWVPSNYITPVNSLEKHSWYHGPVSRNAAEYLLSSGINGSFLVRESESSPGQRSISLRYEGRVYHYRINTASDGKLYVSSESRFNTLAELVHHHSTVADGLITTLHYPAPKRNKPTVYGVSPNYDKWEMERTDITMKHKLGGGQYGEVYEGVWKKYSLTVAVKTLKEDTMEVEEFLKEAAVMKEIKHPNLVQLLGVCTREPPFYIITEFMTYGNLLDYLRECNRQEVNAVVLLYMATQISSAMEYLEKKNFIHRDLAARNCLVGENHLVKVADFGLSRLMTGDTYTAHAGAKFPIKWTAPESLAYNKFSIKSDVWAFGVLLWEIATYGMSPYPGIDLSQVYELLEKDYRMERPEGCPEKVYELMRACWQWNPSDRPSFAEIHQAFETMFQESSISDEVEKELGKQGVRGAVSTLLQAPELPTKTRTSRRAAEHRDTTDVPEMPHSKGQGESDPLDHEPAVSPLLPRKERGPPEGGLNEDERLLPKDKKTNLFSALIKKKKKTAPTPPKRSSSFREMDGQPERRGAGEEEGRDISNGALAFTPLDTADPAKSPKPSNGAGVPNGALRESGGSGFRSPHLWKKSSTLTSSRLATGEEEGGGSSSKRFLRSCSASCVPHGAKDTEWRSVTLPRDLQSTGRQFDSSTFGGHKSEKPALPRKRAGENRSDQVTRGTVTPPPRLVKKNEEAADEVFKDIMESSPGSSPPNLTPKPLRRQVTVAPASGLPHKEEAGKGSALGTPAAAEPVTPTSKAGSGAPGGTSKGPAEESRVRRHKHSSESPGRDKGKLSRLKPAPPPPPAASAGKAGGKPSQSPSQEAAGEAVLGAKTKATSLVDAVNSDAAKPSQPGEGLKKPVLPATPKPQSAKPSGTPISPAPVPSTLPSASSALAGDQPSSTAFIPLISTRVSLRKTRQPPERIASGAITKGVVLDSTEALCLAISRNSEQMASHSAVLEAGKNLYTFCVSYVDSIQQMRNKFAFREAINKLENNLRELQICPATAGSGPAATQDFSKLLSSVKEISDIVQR

[17] = molecular target: Serine/threonine-protein kinase TAO2 (Homo sapiens) (UniProt Q9UL54); test: Inhibition of human TAOK2 at 10 uM relative to control
[18] = molecular target: Cyclin-dependent kinase 2 (Homo sapiens) (UniProt P24941); test: Inhibition of human CDK2 at 10 uM relative to control
[19] = molecular target: cAMP-dependent protein kinase (PKA) (Homo sapiens) (UniProt P22694+P17612+P22612); test: Inhibition of human PKA at 10 uM relative to control; assay type: protein assay
[20] = molecular target: Proto-oncogene tyrosine-protein kinase Src (Homo sapiens) (UniProt P12931); test: Inhibition of human Src at 10 uM relative to control
[21] = molecular target: Serine/threonine-protein kinase 26 (Homo sapiens) (UniProt Q9P289); test: Inhibition of human MST4 at 10 uM relative to control
Sequence of Serine/threonine-protein kinase 26 (Homo sapiens) (Q9P289 2-416 limits assumed): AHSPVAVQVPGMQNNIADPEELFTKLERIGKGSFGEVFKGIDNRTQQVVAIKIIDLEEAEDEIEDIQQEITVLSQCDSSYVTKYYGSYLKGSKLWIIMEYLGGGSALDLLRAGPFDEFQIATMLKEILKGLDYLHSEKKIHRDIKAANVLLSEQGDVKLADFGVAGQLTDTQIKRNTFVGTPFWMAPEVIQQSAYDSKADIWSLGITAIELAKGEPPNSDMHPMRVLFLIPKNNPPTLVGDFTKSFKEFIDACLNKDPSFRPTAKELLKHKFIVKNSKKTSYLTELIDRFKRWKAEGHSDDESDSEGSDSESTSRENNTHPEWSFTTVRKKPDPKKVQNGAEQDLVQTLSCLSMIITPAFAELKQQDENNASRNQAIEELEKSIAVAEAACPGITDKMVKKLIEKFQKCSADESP

[22] = molecular target: Serine/threonine-protein kinase pim-2 (Homo sapiens) (UniProt Q9P1W9); test: Inhibition of human Pim2 at 10 uM relative to control
[23] = molecular target: Hepatocyte growth factor receptor (Homo sapiens) (UniProt P08581); test: Inhibition of human c-Met at 10 uM relative to control
Sequence of Hepatocyte growth factor receptor (Homo sapiens) (P08581 whole entry): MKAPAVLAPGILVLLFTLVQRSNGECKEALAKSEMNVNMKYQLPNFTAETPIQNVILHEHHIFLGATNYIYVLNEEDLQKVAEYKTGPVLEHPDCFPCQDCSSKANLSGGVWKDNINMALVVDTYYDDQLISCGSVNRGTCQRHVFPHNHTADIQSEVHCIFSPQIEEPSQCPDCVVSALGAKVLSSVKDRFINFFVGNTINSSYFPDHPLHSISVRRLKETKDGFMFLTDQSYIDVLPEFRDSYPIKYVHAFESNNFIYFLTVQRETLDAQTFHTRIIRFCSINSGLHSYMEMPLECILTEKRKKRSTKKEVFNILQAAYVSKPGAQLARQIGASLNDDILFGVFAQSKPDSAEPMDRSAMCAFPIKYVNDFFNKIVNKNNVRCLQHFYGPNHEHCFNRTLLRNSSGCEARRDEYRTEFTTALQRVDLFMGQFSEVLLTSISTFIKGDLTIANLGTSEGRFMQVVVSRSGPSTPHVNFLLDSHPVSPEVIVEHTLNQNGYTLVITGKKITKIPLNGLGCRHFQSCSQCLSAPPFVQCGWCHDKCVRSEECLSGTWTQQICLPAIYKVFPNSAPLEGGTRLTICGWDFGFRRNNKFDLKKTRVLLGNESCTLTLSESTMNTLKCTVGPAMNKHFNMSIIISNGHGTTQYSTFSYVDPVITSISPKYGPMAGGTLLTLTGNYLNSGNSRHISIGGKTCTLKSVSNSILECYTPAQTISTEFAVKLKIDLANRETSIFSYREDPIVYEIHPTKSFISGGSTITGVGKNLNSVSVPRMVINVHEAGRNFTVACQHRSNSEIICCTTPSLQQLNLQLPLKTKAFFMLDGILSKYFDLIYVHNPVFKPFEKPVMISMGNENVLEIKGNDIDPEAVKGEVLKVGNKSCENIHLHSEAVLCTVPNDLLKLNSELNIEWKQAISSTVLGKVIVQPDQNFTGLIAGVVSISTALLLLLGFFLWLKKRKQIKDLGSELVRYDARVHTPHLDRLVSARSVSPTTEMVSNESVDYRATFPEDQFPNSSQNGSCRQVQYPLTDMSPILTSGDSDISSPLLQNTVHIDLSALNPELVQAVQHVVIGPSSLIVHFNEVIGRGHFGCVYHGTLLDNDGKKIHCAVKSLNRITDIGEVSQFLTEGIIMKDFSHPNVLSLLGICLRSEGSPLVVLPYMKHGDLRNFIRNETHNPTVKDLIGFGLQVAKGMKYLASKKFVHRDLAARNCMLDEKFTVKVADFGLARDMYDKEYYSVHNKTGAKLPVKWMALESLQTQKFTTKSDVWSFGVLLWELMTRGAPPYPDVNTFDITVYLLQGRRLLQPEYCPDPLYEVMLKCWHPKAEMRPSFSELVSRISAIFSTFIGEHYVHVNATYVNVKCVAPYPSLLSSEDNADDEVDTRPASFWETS

[24] = molecular target: Mitogen-activated protein kinase 14 (Homo sapiens) (UniProt Q16539); test: Inhibition of human p38alpha at 10 uM relative to control
Sequence of Mitogen-activated protein kinase 14 (Homo sapiens) (Q16539 whole entry): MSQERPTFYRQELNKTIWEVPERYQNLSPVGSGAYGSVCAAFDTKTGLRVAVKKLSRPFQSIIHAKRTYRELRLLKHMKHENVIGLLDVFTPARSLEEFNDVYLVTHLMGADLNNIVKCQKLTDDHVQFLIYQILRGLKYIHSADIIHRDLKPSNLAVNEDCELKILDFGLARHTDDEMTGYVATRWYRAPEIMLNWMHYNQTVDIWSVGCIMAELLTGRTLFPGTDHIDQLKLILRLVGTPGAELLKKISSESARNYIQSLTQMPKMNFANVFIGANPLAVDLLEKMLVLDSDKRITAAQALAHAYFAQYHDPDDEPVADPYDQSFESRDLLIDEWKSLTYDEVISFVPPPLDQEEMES

[25] = molecular target: Calcium/calmodulin-dependent protein kinase type II subunit alpha (Homo sapiens) (UniProt Q9UQM7); test: Inhibition of human CaMK2alpha at 10 uM relative to control
[26] = molecular target: Fibroblast growth factor receptor 1 (Homo sapiens) (UniProt P11362); test: Inhibition of human FGFR1 kinase at 10 uM relative to control
[27] = molecular target: Endothelin-1 receptor (Homo sapiens) (UniProt P25101); test: Inhibition of human ETA at 10 uM relative to control
Sequence of Endothelin-1 receptor (Homo sapiens) (P25101 whole entry): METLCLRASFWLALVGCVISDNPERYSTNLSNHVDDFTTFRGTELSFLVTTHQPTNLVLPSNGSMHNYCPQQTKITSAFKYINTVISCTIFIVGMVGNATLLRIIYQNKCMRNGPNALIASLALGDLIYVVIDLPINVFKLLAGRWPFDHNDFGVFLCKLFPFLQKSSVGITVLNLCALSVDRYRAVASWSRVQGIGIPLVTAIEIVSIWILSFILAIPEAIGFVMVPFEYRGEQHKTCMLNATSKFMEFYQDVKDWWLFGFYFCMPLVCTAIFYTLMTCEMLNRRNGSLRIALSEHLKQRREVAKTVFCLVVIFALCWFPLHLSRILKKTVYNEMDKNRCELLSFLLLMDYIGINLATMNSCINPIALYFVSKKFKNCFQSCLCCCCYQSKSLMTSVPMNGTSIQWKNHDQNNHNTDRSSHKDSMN

[28] = molecular target: Histone-lysine N-methyltransferase KMT5C (Homo sapiens) (UniProt Q86Y97); test: Inhibition of human SUV420H2 using Biotin-tagged H4K20me1 and [3H-SAM] as substrate incubated for 2 hrs by scintillation proximity assay
Sequence of Histone-lysine N-methyltransferase KMT5C (Homo sapiens) (Q86Y97 whole entry, looked up): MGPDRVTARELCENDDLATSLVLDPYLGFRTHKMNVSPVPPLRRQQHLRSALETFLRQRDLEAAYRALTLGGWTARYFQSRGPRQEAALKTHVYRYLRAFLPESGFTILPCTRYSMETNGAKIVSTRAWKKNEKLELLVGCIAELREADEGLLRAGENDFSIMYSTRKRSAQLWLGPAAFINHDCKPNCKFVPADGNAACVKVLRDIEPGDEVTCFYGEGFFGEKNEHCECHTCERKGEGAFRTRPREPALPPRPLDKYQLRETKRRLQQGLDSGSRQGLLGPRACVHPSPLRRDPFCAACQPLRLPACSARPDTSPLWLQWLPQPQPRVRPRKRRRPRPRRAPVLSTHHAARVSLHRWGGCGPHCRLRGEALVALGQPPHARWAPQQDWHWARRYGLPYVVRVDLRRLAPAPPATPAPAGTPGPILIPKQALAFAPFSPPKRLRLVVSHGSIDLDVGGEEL

U2OS [29] = test: Inhibition of H4K20me3 in human U2OS cells assessed as change in methylation level at 10 uM incubated for 48 hrs by Western blotting analysis; assay type: functional, cell-based
MEF = test: Antiproliferative activity against mouse MEF cells assessed as change in H4K20me3 at 10 uM incubated for 3 days by immunofluorescence analysis; assay type: functional, cell-based; conditions: time 3.0 day
Homo sapiens [30] = species on record: Homo sapiens; test: Inhibition of human CB1 at 10 uM relative to control
Homo sapiens [31] = species on record: Homo sapiens; test: Inhibition of GABAA (unknown origin) at 10 uM relative to control
[32] = molecular target: Sodium-dependent noradrenaline transporter (Homo sapiens) (UniProt P23975); test: Inhibition of human Norepinephrine transporter at 10 uM relative to control
Sequence of Sodium-dependent noradrenaline transporter (Homo sapiens) (P23975 whole entry): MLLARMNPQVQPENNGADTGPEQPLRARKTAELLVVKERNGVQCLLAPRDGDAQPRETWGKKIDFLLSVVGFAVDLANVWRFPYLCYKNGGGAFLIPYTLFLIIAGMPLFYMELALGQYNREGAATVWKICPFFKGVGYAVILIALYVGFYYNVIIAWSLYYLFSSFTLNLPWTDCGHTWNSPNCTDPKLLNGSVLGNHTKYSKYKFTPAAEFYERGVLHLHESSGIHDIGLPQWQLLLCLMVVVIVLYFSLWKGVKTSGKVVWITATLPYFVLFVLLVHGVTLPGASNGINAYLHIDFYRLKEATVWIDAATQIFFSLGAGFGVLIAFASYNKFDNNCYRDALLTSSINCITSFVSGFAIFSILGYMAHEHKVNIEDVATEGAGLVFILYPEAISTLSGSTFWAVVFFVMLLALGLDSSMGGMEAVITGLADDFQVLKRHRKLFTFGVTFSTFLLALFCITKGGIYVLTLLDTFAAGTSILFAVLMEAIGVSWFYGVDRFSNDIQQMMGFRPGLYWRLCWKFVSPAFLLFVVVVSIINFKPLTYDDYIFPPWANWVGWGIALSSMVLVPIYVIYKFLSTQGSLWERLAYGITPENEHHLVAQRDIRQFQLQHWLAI

[33] = molecular target: Sigma non-opioid intracellular receptor 1 (Homo sapiens) (UniProt Q99720); test: Inhibition of human Sigma non-opioid intracellular receptor 1 at 10 uM relative to control; assay type: cell-based
Sequence of Sigma non-opioid intracellular receptor 1 (Homo sapiens) (Q99720 whole entry): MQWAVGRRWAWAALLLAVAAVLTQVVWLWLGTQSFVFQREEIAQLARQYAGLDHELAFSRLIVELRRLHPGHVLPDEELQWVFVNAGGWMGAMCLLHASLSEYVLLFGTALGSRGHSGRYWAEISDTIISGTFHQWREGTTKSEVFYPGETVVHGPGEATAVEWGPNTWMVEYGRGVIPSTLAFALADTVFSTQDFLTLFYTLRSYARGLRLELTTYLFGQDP

[34] = molecular target: 5-hydroxytryptamine receptor 1E (Homo sapiens) (UniProt P28566); test: Inhibition of human 5-ht1e in stable HEK cells at 10 uM relative to control; assay type: cell-based
Homo sapiens [35] = species on record: Homo sapiens; test: Inhibition of human GABAA at 10 uM relative to control

With `Clc1cc2c(NC3CCCC3)nnc(-c3ccncc3)c2cc1Cl` the inhibition [1] was “inactive”, the inhibition [2] was “inactive” and the inhibition [3] was “inactive”. For the same molecule, the inhibition [4] was “inactive”, the inhibition [5] was “inactive” and the inhibition [6] was “inactive”. For the same molecule, the inhibition (U2OS [7]) was “Active”, the Activity (U2OS [8]) was “Active” and the Activity (U2OS [9]) was “Active”. The Activity (U2OS [10]) was “Active”, the Activity (PC-3) was “Active” and the Activity (HeLa) was “Active”. For the same molecule, the inhibition (U2OS [11]) was “Active”, the Activity (U2OS [12]) was “Active” and the Activity (U2OS [13]) was “Active”. For the same molecule, the Activity (U2OS [14]) was “inactive”, the inhibition [15] was 7% and the inhibition [16] was 2%. It also gave an inhibition [17] of 0%, an inhibition [18] of -1% and an inhibition [19] of -1%. For the same molecule, the inhibition [20] was -1%, the inhibition [21] was -2% and the inhibition [22] was -3%. It also gave an inhibition [23] of -4%, an inhibition [24] of -4% and an inhibition [25] of -5%. For the same molecule, the inhibition [26] was -8% and the inhibition [27] was -5%.
In the case of `O=C(c1nnc(NC2CCCC2)c2cc(Cl)c(Cl)cc12)N1CCC(O)CC1`, the inhibition [28] was “inactive”, the Activity (U2OS [29]) was “inactive” and the Activity (MEF) was “inactive”. For the same molecule, the inhibition (Homo sapiens [30]) was 21%, the inhibition (Homo sapiens [31]) was 25% and the inhibition [32] was 1%. It also gave an inhibition [33] of -7%, an inhibition [34] of 10% and an inhibition (Homo sapiens [35]) of -7%.
